Reference: patent US20160024092A1, “INTRAVENOUS FORMULATIONS OF NEUROKININ-1 ANTAGONISTS” (OPKO Health, Inc., priority 2009, published 2016)
Converted amounts (≈) assume the structure as drawn. Read-outs that look alike come from different tables or passages of the source.

Tests used:
[1] = Equilibrium solubility of Compound 1 (HPLC); type: physicochemical; conditions: for solubility thermodynamic: thermodynamic from solid, pH 7.0
[2] = in vivo
red blood cells = assay: Hemolytic testing in rats after intravenous administration (hemoglobin in urine, Hemastix reagent strips); type: in vivo, rat; design: key: Hemastix scale: 0=negative, 1=non-hemolyzed trace … 6=large+++; conditions: 1-2 min slow-hand bolus, 10 mg/mL drug in 22% Solutol HS15, pH 7.0
Source text: The term “hemolysis” as used herein means destruction of red blood cells which leads to the release of hemoglobin from within the red blood cells into the blood plasma. Hemolysis can be measured by methods well known in the art, e.g., Hemastix® reagent strips (Bayer Corp., Elkhart, Ind.) which detect blood in urine. The
Hemastix® reagent strips turn from yellow to dark green depending upon the amount of hemoglobin found in the urine. The Hemastix® scale is as follows: 0=negative, 1=non-hemolyzed trace, 3=hemolyzed trace, 4=small+, 5=moderate++, and 6=large+++.
Urine samples from the rats were assessed for hemolysis using Hemastix® reagent strips (No. 2190, Bayer Corp., Elkhart Ind.). […] The Hemastix® reagent strips detect the peroxide-like activity of hemoglobin. The strips turn from yellow to dark green depending upon the amount of hemoglobin found in the urine. The Hemastix® scale is as follows: 0=negative, 1=non-hemolyzed trace, 3=hemolyzed trace, 4=small+, 5=moderate++, and 6=large+++.
The methodology for this study was to administer (into the tail vein of a rat) each formulation over 15 minutes by intravenous infusion using an infusion pump or to administer the formulation within two minutes by bolus route using a syringe. Urine was tested for the presence of free hemoglobin using the pooled urine collection method at the six-hour interval. For the six hour pooled urine collection, rats were dosed and placed in a metabolism cage. Six hour post dose, the rats were euthanized by carbon dioxide over-inhalation, and the urine sample was collected. A minimum of five subjects were tested for each formulation and the urine samples were analyzed for hemolysis using Hemastix® reagent strips as indicated in Comparative Example 2.
[…] If the rat voided any urine in the cage, the urine was analyzed using Hemastix® reagent strips to determine the presence of hemoglobinuria.
The methodology for this example was to administer each formulation over 15 minutes by i.v. infusion using an infusion pump or to administer the formulations within 2 minutes by bolus injection using a syringe and delivering the formulation into the tail vein of a rat. Urine was tested by dipstick for the presence of free hemoglobin using the pooled urine collection method at the 6-hour interval.

pKa of Compound 1 = type: physicochemical

solubility thermodynamic ([1]; 16% Captisol (sulfobutyl ether beta-cyclodextrin), aqueous with cosolvent or surfactant or cyclodextrin, 16% Captisol): < 0.006 mg/mL
solubility ([1]; 22% Solutol, aqueous with cosolvent or surfactant or cyclodextrin): 50 mg/mL (≈ 99.9 mM)
solubility thermodynamic ([1]; aqueous with cosolvent or surfactant or cyclodextrin, 20% Solutol): ~50 mg/mL (≈ 99.9 mM)
solubility ([1]; pH 7.4, aqueous buffer, read-out: solubility at the physiological pH of 7.4): < 0.004 mg/mL
time at which half concentration is achieved [2]: around 180 hrs
pKa (pKa of Compound 1): 6.9
Compound: C[C@@H](OC[C@@]1(c2ccccc2)CC[C@]2(CCC(=O)N2)CN1)c1cc(C(F)(F)F)cc(C(F)(F)F)c1 [Compound 1, (5S,8S)-8-[{(1R)-1-(3,5-Bis-(trifluoromethyl)phenyl)-ethoxy}-methyl]-8-phenyl-1,7-diazaspiro[4.5]decan-2-one]
Hemolysis (Female rats) (red blood cells; 10 mg/kg, 15 min): 1
Hemolysis (Male rats) (red blood cells; 10 mg/kg, 15 min): 3
Hemolysis (Female rats) (red blood cells; 10 mg/kg, 30 min): 1
Hemolysis (Male rats) (red blood cells; 10 mg/kg, 30 min): 0
Hemolysis (Female rats) (red blood cells; 10 mg/kg, 60 min): 0
Hemolysis (Male rats) (red blood cells; 10 mg/kg, 60 min): 0
Hemolysis (Female rats) (red blood cells; 20 mg/kg, 15 min): 3
Hemolysis (Male rats) (red blood cells; 20 mg/kg, 15 min): 3
Hemolysis (Female rats) (red blood cells; 20 mg/kg, 30 min): 0
Hemolysis (Male rats) (red blood cells; 20 mg/kg, 30 min): 3
Hemolysis (Female rats) (red blood cells; 20 mg/kg, 60 min): 0
Hemolysis (Male rats) (red blood cells; 20 mg/kg, 60 min): 0
Hemolysis (Female rats) (red blood cells; 30 mg/kg, 15 min): 3
Hemolysis (Male rats) (red blood cells; 30 mg/kg, 15 min): 3
Hemolysis (Female rats) (red blood cells; 30 mg/kg, 30 min): 2
Hemolysis (Male rats) (red blood cells; 30 mg/kg, 30 min): 0
Hemolysis (Female rats) (red blood cells; 30 mg/kg, 60 min): 0
Hemolysis (Male rats) (red blood cells; 30 mg/kg, 60 min): 0
